# How the values were obtained:
# Type in all cases: in vivo
# [1] = system: blackgrass (Alopecurus myosuroides); test: Test A1 preemergence, blackgrass
# Text: (§1) Seeds of plant species selected from, blackgrass (Alopecurus myosuroides), corn (Zea mays), Foxtail, Giant (giant foxtail, Setaria faberi), goosegrass (Eleusine indica), kochia (Bassia scoparia), Oat, Wild (wild oat, Avena fatua), Pigweed, Palmer (palmer amaranth, palmer pigweed, Amaranthus palmeri), ragweed (common ragweed, Ambrosia artemisiifolia), Ryegrass, Italian (Italian ryegrass, Lolium multiflorum), soybean (Glycine max), and wheat (Triticum aestivum) were planted into a blend of loam soil and sand and treated preemergence with a directed soil spray using test chemicals formulated in a non-phytotoxic solvent mixture which included a surfactant. At the same time, plants selected from these crop and weed species and also galium (catchweed bedstraw, Galium aparine) and horseweed (Erigeron canadensis) were planted in pots containing the same blend of loam soil and sand and treated with postemergence applications of test chemicals formulated in the same manner. Plants ranged in height from 2 to 10 cm and were in the one- to two-leaf stage for the postemergence treatment. […] A dash (-) response means no test result.
# corn (Zea mays) [2] = test: Test A1 preemergence, corn
# Text: as §1
# [3] = system: Foxtail, Giant (giant foxtail, Setaria faberi); test: Test A1 preemergence, Foxtail, Giant
# Text: as §1
# [4] = system: goosegrass (Eleusine indica); test: Test A1 preemergence, goosegrass
# Text: as §1
# kochia (Bassia scoparia) [5] = test: Test A1 preemergence, kochia
# Text: as §1
# [6] = system: Oat, Wild (wild oat, Avena fatua); test: Test A1 preemergence, Oat, Wild
# Text: as §1
# [7] = system: Pigweed, Palmer (palmer amaranth, palmer pigweed, Amaranthus palmeri); test: Test A1 preemergence, Pigweed, Palmer
# Text: as §1
# [8] = system: ragweed (common ragweed, Ambrosia artemisiifolia); test: Test A1 preemergence, ragweed
# Text: as §1
# [9] = system: Ryegrass, Italian (Italian ryegrass, Lolium multiflorum); test: Test A1 preemergence, Ryegrass, Italian
# Text: as §1
# soybean (Glycine max) [10] = test: Test A1 preemergence, soybean
# Text: as §1
# [11] = system: wheat (Triticum aestivum); test: Test A1 preemergence, wheat
# Text: as §1
# [12] = system: blackgrass (Alopecurus myosuroides); test: Test A1 postemergence, blackgrass; conditions: Postemergence, 0 to 100 scale (0 no effect, 100 complete control)
# Text: as §1
# corn (Zea mays) [13] = test: Test A1 postemergence, corn; conditions: for Plant response rating, Corn: Postemergence
# Text: as §1
# [14] = system: Foxtail, Giant (giant foxtail, Setaria faberi); test: Test A1 postemergence, Foxtail, Giant; conditions: for Plant response rating, Foxtail, Giant: Postemergence
# Text: as §1
# [15] = system: goosegrass (Eleusine indica); test: Test A1 postemergence, goosegrass; conditions: for Plant response rating, Goosegrass: Postemergence
# Text: as §1
# kochia (Bassia scoparia) [16] = test: Test A1 postemergence, kochia; conditions: for Plant response rating, Kochia: Postemergence
# Text: as §1
# [17] = system: Oat, Wild (wild oat, Avena fatua); test: Test A1 postemergence, Oat, Wild; conditions: for Plant response rating, Oat, Wild: Postemergence
# Text: as §1
# [18] = system: Pigweed, Palmer (palmer amaranth, palmer pigweed, Amaranthus palmeri); test: Test A1 postemergence, Pigweed, Palmer; conditions: for Plant response rating, Pigweed, Palmer: Postemergence
# Text: as §1
# [19] = system: ragweed (common ragweed, Ambrosia artemisiifolia); test: Test A1 postemergence, ragweed; conditions: for Plant response rating, Ragweed: Postemergence
# Text: as §1
# [20] = system: Ryegrass, Italian (Italian ryegrass, Lolium multiflorum); test: Test A1 postemergence, Ryegrass, Italian; conditions: for Plant response rating, Ryegrass, Italian: Postemergence
# Text: as §1
# soybean (Glycine max) [21] = test: Test A1 postemergence, soybean; conditions: for Plant response rating, Soybean: Postemergence
# Text: as §1
# [22] = system: wheat (Triticum aestivum); test: Test A1 postemergence, wheat; conditions: for Plant response rating, Wheat: Postemergence
# Text: as §1
# [23] = system: galium (catchweed bedstraw, Galium aparine); test: Test A1 postemergence, galium; conditions: for Plant response rating, Galium: Postemergence
# Text: as §1
# [24] = system: horseweed (Erigeron canadensis); test: Test A1 postemergence, horseweed; conditions: for Plant response rating, Horseweed: Postemergence
# Text: as §1
# [25] = system: barnyardgrass (Echinochloa crus-galli); test: Test B1 flooded paddy test, barnyardgrass; conditions: 250 g ai/ha, Flood, applied to paddy water, 2-leaf stage, visually evaluated after 10 to 14 days
# Text: (§2) A dash (-) response means no test result.
# [26] = system: ducksalad (Heteranthera limosa); test: Test B1 flooded paddy test, ducksalad; conditions: 250 g ai/ha, Flood, applied to paddy water, 2-leaf stage, visually evaluated after 10 to 14 days
# Text: as §2
# rice (Oryza sativa) = test: Test B1 flooded paddy test, rice; conditions: 250 g ai/ha, Flood, applied to paddy water, 2-leaf stage, visually evaluated after 10 to 14 days
# Text: as §2
# [27] = 31 g ai/ha, 0 to 100 scale (0 no effect, 100 complete control)
# [28] = 125 g ai/ha, 0 to 100 scale, 0 no effect, 100 complete control
# [29] = 31 g ai/ha, 0 to 100 scale (0 no effect, 100 complete control), 10 days
# [30] = 31 g ai/ha, postemergence, 0 to 100 scale (0 no effect, 100 complete control)
# [31] = 125 g ai/ha, 0 to 100 scale (0 no effect, 100 complete control), 10 days
smiles,measurement,setting,value
Cc1cc(C2CC2)c(NS(=O)(=O)C(F)(F)F)cc1C1=NOC2(CCCC2)C1 [Compound 313],"Plant response rating, Blackgrass",[1]; [27],0
same,"Plant response rating, Blackgrass",[1]; [28],0
same,"Plant response rating, Corn",corn (Zea mays) [2]; [27],0
same,"Plant response rating, Corn",corn (Zea mays) [2]; [28],0
same,"Plant response rating, Foxtail, Giant",[3]; [27],0
same,"Plant response rating, Foxtail, Giant",[3]; [28],40
same,"Plant response rating, Goosegrass",[4]; [27],0
same,"Plant response rating, Goosegrass",[4]; [28],20
same,"Plant response rating, Kochia",kochia (Bassia scoparia) [5]; [27],0
same,"Plant response rating, Kochia",kochia (Bassia scoparia) [5]; [28],0
same,"Plant response rating, Oat, Wild",[6]; [27],0
same,"Plant response rating, Oat, Wild",[6]; [28],0
same,"Plant response rating, Pigweed, Palmer",[7]; [27],0
same,"Plant response rating, Pigweed, Palmer",[7]; [28],20
same,"Plant response rating, Ragweed",[8]; [27],0
same,"Plant response rating, Ragweed",[8]; [28],0
same,"Plant response rating, Ryegrass, Italian",[9]; [27],30
same,"Plant response rating, Ryegrass, Italian",[9]; [28],50
same,"Plant response rating, Soybean",soybean (Glycine max) [10]; [27],0
same,"Plant response rating, Soybean",soybean (Glycine max) [10]; [28],0
same,"Plant response rating, Wheat",[11]; [27],0
same,"Plant response rating, Wheat",[11]; [28],0
same,"Plant response rating, Blackgrass","[12]; 31 g ai/ha, 10 days",0
same,"Plant response rating, Blackgrass",[12]; 125 g ai/ha,0
same,"Plant response rating, Corn",corn (Zea mays) [13]; [29],0
same,"Plant response rating, Corn","corn (Zea mays) [13]; 125 g ai/ha, 0 to 100 scale",0
same,"Plant response rating, Foxtail, Giant",[14]; [29],0
same,"Plant response rating, Foxtail, Giant","[14]; 125 g ai/ha, 0 to 100 scale",0
same,"Plant response rating, Goosegrass",[15]; [29],0
same,"Plant response rating, Goosegrass","[15]; 125 g ai/ha, 0 to 100 scale",0
same,"Plant response rating, Kochia",kochia (Bassia scoparia) [16]; [29],0
same,"Plant response rating, Kochia","kochia (Bassia scoparia) [16]; 125 g ai/ha, 0 to 100 scale",20
same,"Plant response rating, Oat, Wild",[17]; [29],0
same,"Plant response rating, Oat, Wild","[17]; 125 g ai/ha, 0 to 100 scale",0
same,"Plant response rating, Pigweed, Palmer",[18]; [29],0
same,"Plant response rating, Pigweed, Palmer","[18]; 125 g ai/ha, 0 to 100 scale",10
same,"Plant response rating, Ragweed",[19]; [29],0
same,"Plant response rating, Ragweed","[19]; 125 g ai/ha, 0 to 100 scale",0
same,"Plant response rating, Ryegrass, Italian",[20]; [29],0
same,"Plant response rating, Ryegrass, Italian","[20]; 125 g ai/ha, 0 to 100 scale",0
same,"Plant response rating, Soybean",soybean (Glycine max) [21]; [29],0
same,"Plant response rating, Soybean","soybean (Glycine max) [21]; 125 g ai/ha, 0 to 100 scale",20
same,"Plant response rating, Wheat",[22]; [29],0
same,"Plant response rating, Wheat","[22]; 125 g ai/ha, 0 to 100 scale",0
same,"Plant response rating, Galium",[23]; [29],0
same,"Plant response rating, Galium","[23]; 125 g ai/ha, 0 to 100 scale",30
same,"Plant response rating, Horseweed",[24]; [29],0
same,"Plant response rating, Horseweed","[24]; 125 g ai/ha, 0 to 100 scale",0
same,"Plant response rating, Barnyardgrass (0 to 100 scale, 0 is no effect, 100 is complete control)",[25],0
same,"Plant response rating, Ducksalad (0 to 100 scale, 0 is no effect, 100 is complete control)",[26],0
same,"Plant response rating, Rice (0 to 100 scale, 0 is no effect, 100 is complete control)",rice (Oryza sativa),0
Cc1cc(Cl)c(NS(=O)(=O)C(F)(F)F)cc1N1CC2(CCCCC2)OC1=O [Compound 394],"Plant response rating, Blackgrass",[1]; [27],0
same,"Plant response rating, Blackgrass",[1]; [28],70
same,"Plant response rating, Corn",corn (Zea mays) [2]; [27],0
same,"Plant response rating, Corn",corn (Zea mays) [2]; [28],20
same,"Plant response rating, Foxtail, Giant",[3]; [27],90
same,"Plant response rating, Foxtail, Giant",[3]; [28],100
same,"Plant response rating, Goosegrass",[4]; [27],80
same,"Plant response rating, Goosegrass",[4]; [28],100
same,"Plant response rating, Kochia",kochia (Bassia scoparia) [5]; [27],30
same,"Plant response rating, Kochia",kochia (Bassia scoparia) [5]; [28],60
same,"Plant response rating, Oat, Wild",[6]; [27],20
same,"Plant response rating, Oat, Wild",[6]; [28],90
same,"Plant response rating, Pigweed, Palmer",[7]; [27],20
same,"Plant response rating, Pigweed, Palmer",[7]; [28],90
same,"Plant response rating, Ragweed",[8]; [27],40
same,"Plant response rating, Ragweed",[8]; [28],90
same,"Plant response rating, Ryegrass, Italian",[9]; [27],40
same,"Plant response rating, Ryegrass, Italian",[9]; [28],100
same,"Plant response rating, Soybean",soybean (Glycine max) [10]; [27],50
same,"Plant response rating, Soybean",soybean (Glycine max) [10]; [28],60
same,"Plant response rating, Wheat",[11]; [27],30
same,"Plant response rating, Wheat",[11]; [28],70
same,Corn plant response rating,corn (Zea mays) [13]; [30],0
same,"Plant response rating, Corn",corn (Zea mays) [13]; [31],40
same,"Foxtail, Giant plant response rating",[14]; [30],0
same,"Plant response rating, Foxtail, Giant",[14]; [31],50
same,Goosegrass plant response rating,[15]; [30],0
same,"Plant response rating, Goosegrass",[15]; [31],30
same,Kochia plant response rating,kochia (Bassia scoparia) [16]; [30],40
same,"Plant response rating, Kochia",kochia (Bassia scoparia) [16]; [31],80
same,"Oat, Wild plant response rating",[17]; [30],0
same,"Plant response rating, Oat, Wild",[17]; [31],0
same,"Pigweed, Palmer plant response rating",[18]; [30],50
same,"Plant response rating, Pigweed, Palmer",[18]; [31],50
same,Ragweed plant response rating,[19]; [30],90
same,"Plant response rating, Ragweed",[19]; [31],90
same,"Ryegrass, Italian plant response rating",[20]; [30],20
same,"Plant response rating, Ryegrass, Italian",[20]; [31],40
same,Soybean plant response rating,soybean (Glycine max) [21]; [30],10
same,"Plant response rating, Soybean",soybean (Glycine max) [21]; [31],60
same,Wheat plant response rating,[22]; [30],10
same,"Plant response rating, Wheat",[22]; [31],40
same,Galium plant response rating,[23]; [30],100
same,"Plant response rating, Galium",[23]; [31],100
same,Horseweed plant response rating,[24]; [30],30
same,"Plant response rating, Horseweed",[24]; [31],80
same,"Plant response rating, Barnyardgrass (0 to 100 scale, 0 is no effect, 100 is complete control)",[25],0
same,"Plant response rating, Ducksalad (0 to 100 scale, 0 is no effect, 100 is complete control)",[26],85
same,"Plant response rating, Rice (0 to 100 scale, 0 is no effect, 100 is complete control)",rice (Oryza sativa),0

# Source: patent publication US20230278972A1, “SUBSTITUTED HALOALKYL SULFONANILIDE HERBICIDES” (FMC Corporation, priority 2020, published 2023)
